From PubChem BioAssay (NCI)
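Five compound concentrations were applied to cells in 96-well plates for 48 hours; endpoints were derived by simple linear interpolation of the resulting dose-response curve. The concentration for full growth arrest is given as TGI.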

system: T-47D breast; assay: NCI anticancer screen, dose series, 48 h

Compound	TGI
COC(=O)CC(C)(NS(=O)c1ccc(C)cc1)c1ccccc1 (stereo unspecified)	> 100 µM
CCCCCCc1cc2cc(-c3cn4ccsc4n3)c(=O)oc2cc1O	> 100 µM
O=C(O)C1C2c3ccccc3C(c3ccccc32)C1C(=O)NCC1CC1 (stereo unspecified)	> 100 µM
COC(=O)[C@]1(C)CCC[C@@]2(C)C1CC[C@@]13C=C(C(C)C)[C@@H](CC1=O)CC23 (stereo partly specified)	> 100 µM
O=c1c(F)cn(Cc2c(Cl)cccc2Cl)c(=O)n1Cc1c(Cl)cccc1Cl	> 31.6 µM
Cc1ccc(Nc2nc(NNC(=O)Cc3ccccc3)nc(NNC(=O)c3ccncc3)n2)cc1	> 10 µM
Cc1ccc2nc(-c3ccccc3)cc(=O)n2c1	> 100 µM
C=CCNC(=S)N/C=C(\C#N)C(N)=O	> 100 µM
C=C1C(=O)O[C@@H]2/C=C(C)/C=C\[C@@H]3O[C@@]3(C)C[C@@H](O)C12 (stereo partly specified)	23.6 µM
O=c1[nH]c(=O)n(C2COC(CO)C2O)cc1F (stereo unspecified)	> 100 µM
O=[N+]([O-])c1ccc2nc(Nc3ccccc3)c(Nc3ccccc3)nc2c1	8.63 µM
COc1ccc(C2=CC(C(C)=C(C(N)=O)C(N)=O)C=C(c3ccc(Br)cc3)C2)c(OC)c1 (stereo unspecified)	> 100 µM
CC(C)(CN1CCCCC1)C(/C=C/c1ccc(Cl)cc1)=N\NC(=O)N/N=C(/C=C/c1ccc(Cl)cc1)C(C)(C)CN1CCCCC1	13.6 µM
CC(C)C(NC(=O)Oc1ccccc1)C(=O)NC1c2c(Br)sc(Br)c2C(=O)C1O (stereo unspecified)	16.7 µM
CSC(=O)c1sc(SC)[n+](-c2ccccc2)c1O	29.5 µM
CC1=NN(c2nc(N)nc(COc3ccc(N)cc3)n2)C(C)(C)C1	> 100 µM

Compound	TGI
Cc1cc(OC(=O)Nc2cccc3ccccc23)c(C(C)C)cc1C(=S)Nc1ccccc1	53.6 µM
Cc1[nH]c(=O)nc2sc(=NC3CCCCC3)n(C3CCCCC3)c(=O)c12	> 100 µM
C[C@]12c3c4cc(NC(=O)C(=O)NCc5ccc(-c6ccccn6)nc5)cc3Oc3cc(NC(=O)C(=O)NCc5ccc(-c6ccccn6)nc5)cc(c31)OC1C=C(NC(=O)C(=O)NCc3ccc(-c5ccccn5)nc3)C=C(O4)C12 (stereo partly specified)	97.9 µM
C/C(=N\NC(N)=S)c1ccc2c(c1)Sc1ccccc1O2	> 100 µM
O=c1[nH]c(=O)c2c3n(cc2[nH]1)CCCCC3	> 100 µM
COc1ccc(C(C)NNC(=O)c2ccncc2)cc1OC (stereo unspecified)	> 100 µM
C[C@]12[C@@H]3CC[C@H]1[C@@H](O)C(=O)N2CC3	> 100 µM
O=C(C(=O)n1ccc2ccccc21)n1ccc2ccccc21	> 100 µM
COc1ccc(NC(=S)c2ccc(CN3CCCCC3)s2)cc1	60.7 µM
Cc1ccc(S[C@@H](C)[C@@](O)(CF)CN(Cc2ccccc2)C(=O)C(F)(F)F)cc1	68.5 µM
CCN(CC)CCCNC(=O)c1cc(-c2nccn2C)nc2ccccc12	> 100 µM
COc1ccc2oc3c(C)cc4c(OC)nnc(OC)c4c3c2c1	> 100 µM
COc1ccc(S(=O)(=O)n2c3c(c4ccccc42)[C@@H]2[C@@H](CCCN2C(=O)CS(=O)c2ccc(C)cc2)[C@H](Cl)C3)cc1 (stereo partly specified)	> 100 µM
CCOC(=O)CCCSCCCC(=O)CCCSCCCC(=O)OCC	> 100 µM
CC(C)=C[C@H]1C[C@H](C)[C@H]2CC[C@H](C)c3c2c1c(C)c1ncoc31	37.9 µM
COc1cccc(-c2cc(=O)c3cc(N4CCCCC4)ccc3[nH]2)c1	> 100 µM

system: CCRF-CEM leukemia; assay: NCI anticancer screen, dose series, 48 h

Compound	TGI
CCCCCCc1cc2cc(-c3cn4ccsc4n3)c(=O)oc2cc1O	> 100 µM
O=C(O)C1C2c3ccccc3C(c3ccccc32)C1C(=O)NCC1CC1 (stereo unspecified)	96.8 µM
COC(=O)[C@]1(C)CCC[C@@]2(C)C1CC[C@@]13C=C(C(C)C)[C@@H](CC1=O)CC23 (stereo partly specified)	42.4 µM
O=c1c(F)cn(Cc2c(Cl)cccc2Cl)c(=O)n1Cc1c(Cl)cccc1Cl	> 31.6 µM
Cc1ccc(Nc2nc(NNC(=O)Cc3ccccc3)nc(NNC(=O)c3ccncc3)n2)cc1	> 10 µM
Cc1ccc2nc(-c3ccccc3)cc(=O)n2c1	> 100 µM
C=CCNC(=S)N/C=C(\C#N)C(N)=O	> 100 µM
C=C1C(=O)O[C@@H]2/C=C(C)/C=C\[C@@H]3O[C@@]3(C)C[C@@H](O)C12 (stereo partly specified)	4.93 µM
O=c1[nH]c(=O)n(C2COC(CO)C2O)cc1F (stereo unspecified)	> 100 µM
O=[N+]([O-])c1ccc2nc(Nc3ccccc3)c(Nc3ccccc3)nc2c1	> 100 µM
COc1ccc(C2=CC(C(C)=C(C(N)=O)C(N)=O)C=C(c3ccc(Br)cc3)C2)c(OC)c1 (stereo unspecified)	> 100 µM
CC(C)(CN1CCCCC1)C(/C=C/c1ccc(Cl)cc1)=N\NC(=O)N/N=C(/C=C/c1ccc(Cl)cc1)C(C)(C)CN1CCCCC1	> 21.9 µM
CC(C)C(NC(=O)Oc1ccccc1)C(=O)NC1c2c(Br)sc(Br)c2C(=O)C1O (stereo unspecified)	15.6 µM
CSC(=O)c1sc(SC)[n+](-c2ccccc2)c1O	38.1 µM
CC1=NN(c2nc(N)nc(COc3ccc(N)cc3)n2)C(C)(C)C1	> 100 µM
Cc1cc(OC(=O)Nc2cccc3ccccc23)c(C(C)C)cc1C(=S)Nc1ccccc1	27.5 µM

Compound	TGI
Cc1[nH]c(=O)nc2sc(=NC3CCCCC3)n(C3CCCCC3)c(=O)c12	> 100 µM
C[C@]12c3c4cc(NC(=O)C(=O)NCc5ccc(-c6ccccn6)nc5)cc3Oc3cc(NC(=O)C(=O)NCc5ccc(-c6ccccn6)nc5)cc(c31)OC1C=C(NC(=O)C(=O)NCc3ccc(-c5ccccn5)nc3)C=C(O4)C12 (stereo partly specified)	> 100 µM
C/C(=N\NC(N)=S)c1ccc2c(c1)Sc1ccccc1O2	> 100 µM
O=c1[nH]c(=O)c2c3n(cc2[nH]1)CCCCC3	> 100 µM
COc1ccc(C(C)NNC(=O)c2ccncc2)cc1OC (stereo unspecified)	> 100 µM
C[C@]12[C@@H]3CC[C@H]1[C@@H](O)C(=O)N2CC3	> 100 µM
O=C(C(=O)n1ccc2ccccc21)n1ccc2ccccc21	> 100 µM
COc1ccc(NC(=S)c2ccc(CN3CCCCC3)s2)cc1	34.5 µM
Cc1ccc(S[C@@H](C)[C@@](O)(CF)CN(Cc2ccccc2)C(=O)C(F)(F)F)cc1	> 100 µM
CCN(CC)CCCNC(=O)c1cc(-c2nccn2C)nc2ccccc12	> 100 µM
COc1ccc2oc3c(C)cc4c(OC)nnc(OC)c4c3c2c1	> 100 µM
COc1ccc(S(=O)(=O)n2c3c(c4ccccc42)[C@@H]2[C@@H](CCCN2C(=O)CS(=O)c2ccc(C)cc2)[C@H](Cl)C3)cc1 (stereo partly specified)	> 100 µM
CCOC(=O)CCCSCCCC(=O)CCCSCCCC(=O)OCC	> 100 µM
CC(C)=C[C@H]1C[C@H](C)[C@H]2CC[C@H](C)c3c2c1c(C)c1ncoc31	39.6 µM
COc1cccc(-c2cc(=O)c3cc(N4CCCCC4)ccc3[nH]2)c1	> 100 µM

system: 786-0 renal; assay: NCI anticancer screen, dose series, 48 h

Compound	TGI
COC(=O)CC(C)(NS(=O)c1ccc(C)cc1)c1ccccc1 (stereo unspecified)	> 100 µM
CCCCCCc1cc2cc(-c3cn4ccsc4n3)c(=O)oc2cc1O	> 100 µM
O=C(O)C1C2c3ccccc3C(c3ccccc32)C1C(=O)NCC1CC1 (stereo unspecified)	> 100 µM
COC(=O)[C@]1(C)CCC[C@@]2(C)C1CC[C@@]13C=C(C(C)C)[C@@H](CC1=O)CC23 (stereo partly specified)	60.7 µM
O=c1c(F)cn(Cc2c(Cl)cccc2Cl)c(=O)n1Cc1c(Cl)cccc1Cl	> 31.6 µM
Cc1ccc(Nc2nc(NNC(=O)Cc3ccccc3)nc(NNC(=O)c3ccncc3)n2)cc1	> 10 µM
Cc1ccc2nc(-c3ccccc3)cc(=O)n2c1	> 100 µM
C=CCNC(=S)N/C=C(\C#N)C(N)=O	> 100 µM
C=C1C(=O)O[C@@H]2/C=C(C)/C=C\[C@@H]3O[C@@]3(C)C[C@@H](O)C12 (stereo partly specified)	21.1 µM
O=c1[nH]c(=O)n(C2COC(CO)C2O)cc1F (stereo unspecified)	> 100 µM
O=[N+]([O-])c1ccc2nc(Nc3ccccc3)c(Nc3ccccc3)nc2c1	7.83 µM
COc1ccc(C2=CC(C(C)=C(C(N)=O)C(N)=O)C=C(c3ccc(Br)cc3)C2)c(OC)c1 (stereo unspecified)	> 100 µM
CC(C)(CN1CCCCC1)C(/C=C/c1ccc(Cl)cc1)=N\NC(=O)N/N=C(/C=C/c1ccc(Cl)cc1)C(C)(C)CN1CCCCC1	11.1 µM
CC(C)C(NC(=O)Oc1ccccc1)C(=O)NC1c2c(Br)sc(Br)c2C(=O)C1O (stereo unspecified)	> 25 µM
CSC(=O)c1sc(SC)[n+](-c2ccccc2)c1O	32.7 µM
CC1=NN(c2nc(N)nc(COc3ccc(N)cc3)n2)C(C)(C)C1	> 100 µM

Compound	TGI
Cc1cc(OC(=O)Nc2cccc3ccccc23)c(C(C)C)cc1C(=S)Nc1ccccc1	56.6 µM
Cc1[nH]c(=O)nc2sc(=NC3CCCCC3)n(C3CCCCC3)c(=O)c12	> 100 µM
C[C@]12c3c4cc(NC(=O)C(=O)NCc5ccc(-c6ccccn6)nc5)cc3Oc3cc(NC(=O)C(=O)NCc5ccc(-c6ccccn6)nc5)cc(c31)OC1C=C(NC(=O)C(=O)NCc3ccc(-c5ccccn5)nc3)C=C(O4)C12 (stereo partly specified)	75.5 µM
C/C(=N\NC(N)=S)c1ccc2c(c1)Sc1ccccc1O2	25.7 µM
O=c1[nH]c(=O)c2c3n(cc2[nH]1)CCCCC3	> 100 µM
COc1ccc(C(C)NNC(=O)c2ccncc2)cc1OC (stereo unspecified)	> 100 µM
C[C@]12[C@@H]3CC[C@H]1[C@@H](O)C(=O)N2CC3	> 100 µM
O=C(C(=O)n1ccc2ccccc21)n1ccc2ccccc21	> 100 µM
COc1ccc(NC(=S)c2ccc(CN3CCCCC3)s2)cc1	36.7 µM
Cc1ccc(S[C@@H](C)[C@@](O)(CF)CN(Cc2ccccc2)C(=O)C(F)(F)F)cc1	35.4 µM
CCN(CC)CCCNC(=O)c1cc(-c2nccn2C)nc2ccccc12	> 100 µM
COc1ccc2oc3c(C)cc4c(OC)nnc(OC)c4c3c2c1	> 100 µM
COc1ccc(S(=O)(=O)n2c3c(c4ccccc42)[C@@H]2[C@@H](CCCN2C(=O)CS(=O)c2ccc(C)cc2)[C@H](Cl)C3)cc1 (stereo partly specified)	> 100 µM
CCOC(=O)CCCSCCCC(=O)CCCSCCCC(=O)OCC	> 100 µM
CC(C)=C[C@H]1C[C@H](C)[C@H]2CC[C@H](C)c3c2c1c(C)c1ncoc31	36.1 µM
COc1cccc(-c2cc(=O)c3cc(N4CCCCC4)ccc3[nH]2)c1	> 48 µM

system: ACHN renal; assay: NCI anticancer screen, dose series, 48 h

Compound	TGI
COC(=O)CC(C)(NS(=O)c1ccc(C)cc1)c1ccccc1 (stereo unspecified)	> 100 µM
CCCCCCc1cc2cc(-c3cn4ccsc4n3)c(=O)oc2cc1O	> 100 µM
O=C(O)C1C2c3ccccc3C(c3ccccc32)C1C(=O)NCC1CC1 (stereo unspecified)	> 100 µM
COC(=O)[C@]1(C)CCC[C@@]2(C)C1CC[C@@]13C=C(C(C)C)[C@@H](CC1=O)CC23 (stereo partly specified)	45.1 µM
O=c1c(F)cn(Cc2c(Cl)cccc2Cl)c(=O)n1Cc1c(Cl)cccc1Cl	> 31.6 µM
Cc1ccc2nc(-c3ccccc3)cc(=O)n2c1	> 100 µM
C=CCNC(=S)N/C=C(\C#N)C(N)=O	> 100 µM
C=C1C(=O)O[C@@H]2/C=C(C)/C=C\[C@@H]3O[C@@]3(C)C[C@@H](O)C12 (stereo partly specified)	18.3 µM
O=c1[nH]c(=O)n(C2COC(CO)C2O)cc1F (stereo unspecified)	> 100 µM
O=[N+]([O-])c1ccc2nc(Nc3ccccc3)c(Nc3ccccc3)nc2c1	3.11 µM
COc1ccc(C2=CC(C(C)=C(C(N)=O)C(N)=O)C=C(c3ccc(Br)cc3)C2)c(OC)c1 (stereo unspecified)	> 100 µM
CC(C)(CN1CCCCC1)C(/C=C/c1ccc(Cl)cc1)=N\NC(=O)N/N=C(/C=C/c1ccc(Cl)cc1)C(C)(C)CN1CCCCC1	15 µM
CC(C)C(NC(=O)Oc1ccccc1)C(=O)NC1c2c(Br)sc(Br)c2C(=O)C1O (stereo unspecified)	10.2 µM
CSC(=O)c1sc(SC)[n+](-c2ccccc2)c1O	> 100 µM
CC1=NN(c2nc(N)nc(COc3ccc(N)cc3)n2)C(C)(C)C1	> 100 µM
Cc1cc(OC(=O)Nc2cccc3ccccc23)c(C(C)C)cc1C(=S)Nc1ccccc1	73.5 µM
